Here are results for two compounds from patent US20240010961A1 (priority 2020, published 2024).

Data set [1] has as its system tumor cells.
Excerpt: Using the MOI device, tumor cells were co-cultured without, FIG. 12A, and with, FIG. 12B, liver organoid suspended on the MOI device.
The test system of data set [2] is hepatocytes. Nature of the data set: MOI validation: hepatocyte drug metabolism quantified in culture medium by liquid chromatography mass spectrometry. It counts as in vitro ADME. As to conditions: hepatocytes in well insert, medium sampled 0.5-72 h. The protocol:
The MOI can be validated for all drugs of interest prior to applying it to sarcoma organoids. In one embodiment, the validation process includes printing 1,000-20,000 hepatocytes in the well insert and incubating in medium for 72 hours. In some embodiments, between about 5,000 and about 10,000 hepatocytes are provided in the well insert. At the 0.5, 1, 2, 4, 8, 12, 24, 48 and 72 h time-points, culture medium is collected from the well. Liquid chromatography mass spectrometry can be used to quantify the parent compound, its metabolites, and their concentrations. The goal is to identify conditions that recreate in vivo drug metabolism. […] To optimize these parameters, the size, shape, and cell density of the well insert can be changed if necessary. Hepatocyte viability and proliferation can be assessed for each time-point by Calcein AM and propidium iodide staining as well as an ATP assay. Optimal hepatocyte conditions and incubation periods for each drug can then be used in subsequent experiments.

Data set [3] concerns EW-7 (Ewing's sarcoma). As to conditions: EW-7 in mice; cited from earlier work.
The subject of data set [4] is SAOS-LM7 (osteosarcoma). As to conditions: cited from earlier work.

Where two headings read alike, the source gives them in different places.

As for `O=P1(N(CCCl)CCCl)NCCCO1` (centres unmarked) [cyclophosphamide], the tumor cell viability result in data set [1] (control, without liver organoid on the MOI device (FIG. 12A), logarithmically increasing concentration) is “not significantly diminished”; in data set [1] (with MOI-device-supported liver organoid (FIG. 12B), higher CP concentrations), “decreased”.

Consider `O=P1(NCCCl)OCCCN1CCCl` (centres unmarked) [ifosfamide], for which the “fraction converted into chloro-acetaldehyde” value in data set [2] is 25-50%. In addition, the “sensitivity of cell line in mice” value in data set [3] and in data set [4] was “sensitive” in each case.
